PMC9147645, “Food-Derived β-Carboline Alkaloids Ameliorate Lipid Droplet Accumulation in Human Hepatocytes” (Pharmaceuticals, 2022)

What was measured:
[1] = test system: HepG2 cells; experiment: Lipid droplet accumulation inhibition (LDAI) assay, Oil Red O, oleic acid-loaded cells; assay type: cell-based, human; settings: HepG2 + 0.25 mM oleic acid, vs untreated control (+OA)
Description: LDAI assay: LDAI activity was determined using an Oil Red O assay with 24-well plates (n = 4 per treatment). Staining of LDs in cultured hepatocytes was performed according to the manufacturer’s instructions, based on the Oil Red O staining assay. Briefly, HepG2 cells (1.5 × 10^4/well) were supplemented with 10% FBS, cultured, seeded in 35-mm dishes, and treated with the tested samples after 24 h. Oil Red O, a fat-soluble dye, is widely used for staining neutral lipids in LDs, as described in the Supplementary Materials. […]
2 1.2. Cytotoxicity assay dropwise under ice-cooling. […]
Lipid droplet accumulation inhibition assay and Real-Ti me LDAI acid tryptophan (9) and compound 12 were subjected to acid conversion at 90 °C accumulation in acetic acid to obtain compound 2 (1H and 13C, see in Supporting Information). Lipid droplet accumulation inhibition (LDAI) activity was determined using an Synthesis of Compound 4. To a stirred soln . compound 3 in MeOH was added oilred assay in a 24-well plate according to the manufacturer ’sinstructions (n = 4 with NaOH (2 mol/L). Compound 4 was obtained after stirringthe mixture at 65℃ per each treatment). Real-time oleic induced-LD inhibition was performed by for 5 h. (1H and 13C, see Figures S10 and S11). We also prepared similar using a Nikkon microscope. Morphological analysis of HepG2 cells after compounds without any substituent at the C-1 position in the C-ring using a one- treatment with control(-OA) and (+OA) or compound at different concentrations pot Pictet–Spengler reaction (6-8). was determined by staining with AO/EB.
Synthetic b-carboline alkaloids (1-8): 1.4. Oil Red O Staining.
CAS Registry Number of all the series of synthetic b-carboline alkaloids (1-8) HepG2 cells were cultured and treated in 35 mm dishes, as described above. were subjected to biological evaluation: 1H-Pyrido[3,4-b]indole-3-carboxylic acid, Oil Red O dye was used for LD staining. Oil Red O was dissolved in isopropanol 1-[5-[(acetyloxy)methyl]-2-furanyl]-2,3,4,9-tetrahydro-, methyl ester, (1S-trans)- as 3 mg/mL and diluted with water so that isopropanol became 60%. Oil Red O (9CI) (1,CAS Registry Number 11 5 1 0 7-75-0;11 5 1 0 7-76-1);2,3,4,9-Tetrahydro-1-solutionwasfilteredbya0.4 μm pore syringe filter.For cellular staining, the […]

[2] = test system: adipose triglyceride lipase (ATGL); experiment: Gene expression, real-time PCR; assay type: cell-based, human; settings: HepG2 + 0.25 mM OA, 200 and 400 μM compound, 24 h, normalized to GAPDH
Description: To better understand how the supplementation of compounds 2 and 4 during LDA in HepG2 cells affects lipolysis and lipogenesis, we performed gene expression analysis using real-time PCR under the following conditions. Briefly, HepG2 cells (2.0 × 10^5/well) were seeded in 24-well plates (n = 6 per treatment). After 24 h, the cells were treated with PBS, 0.25 mM OA only, 0.25 mM OA plus 200 and 400 μM compound 2, or 0.25 mM OA plus 200 and 400 μM compound 4. After another 24 h, RNA extraction and complementary DNA synthesis were performed, according to the manufacturer’s instructions and a previous study. The sequences of the primers used are shown in the Supplementary Materials, Table S1: adipose triglyceride lipase (ATGL), diacylglycerol O-acyltransferase 1 (DGAT1), sterol regulatory element-binding protein 1 (SREBP1), fatty acid synthase (FASN), stearoyl-CoA desaturase 1 (SCD1), and glyceraldehyde-3-phosphate dehydrogenase (GAPDH). PCR was performed using a CFX 96 Real-Time PCR Detection System (Bio-Rad Laboratories Inc., Hercules, CA, USA) under the following conditions: 95 °C for 30 s, followed by 40 cycles at 95 °C for 5 s, 60 °C for 5 s, and 72 °C for 10 s. All gene expression levels were analyzed using the ΔΔCt method and normalized to GAPDH. Data were represented as relative expression based on that of the control group.

[3] = test system: HepG2 cells; experiment: Real-time LDAI monitoring (live imaging); assay type: cell-based, human; settings: HepG2 in DMEM with oleic acid, within 20 h
Description: Real-time LDAI monitoring: Morphological changes in HepG2 cells and LDs induced by treatment with 4 were monitored using a Nikon, Hamamatsu Photonics/Ti-E, CCD Camera for 20 h. The cell viability of the control cells was examined by staining with acridine orange (AO)/ethidium bromide (EB) dyes at the end of the experiment (20 h) (Supplementary Materials, Figure S12).

[4] = test system: cultured human hepatocytes (C3A); parameters: method as in earlier work; settings: ref "We have reported"; cited from earlier work
[5] = test system: nuclear factor erythroid 2-related factor 2 (Nrf2); settings: hepatocytes; ref "We have reported"; cited from earlier work

Compound `O=C(O)C1Cc2c([nH]c3ccccc23)C(c2ccc(CO)o2)N1` (stereo not drawn) [Compound 2, 1,2,3,4-tetrahydro-1-(5-(hydroxymethyl)-2-furanyl)-9H-pyrido [3,4-b]indole-3-carboxylic acid] has an inhibition at 100 µM ([1]; Homo sapiens, HepG2, 24 h, 100 μM) of 25.5%, an inhibition at 200 µM ([1]; Homo sapiens, HepG2, 24 h) of 29.1% and an inhibition at 400 µM ([1]; Homo sapiens, HepG2, 24 h) of 74%. For the same compound, the ATGL gene expression [2] was “upregulated”.
For `O=C(O)c1cc2c([nH]c3ccccc32)c(-c2ccc(CO)o2)n1` [Compound 4, flazin], the LDAI ([1]; 100 μM, 24 h) was “ns”, the inhibition at 200 µM ([1]; Homo sapiens, HepG2, 24 h) was 20% and the inhibition at 400 µM ([1]; Homo sapiens, HepG2, 24 h) was 77.5%. The ATGL gene expression [2] was “upregulated”, the “Accumulated neutral LDs in real-time imaging” value [3] was “significantly reduced in number” and the Cytotoxicity [4] was “without showing any significant cytotoxicity”. The “Protection from oxidative damage by AAPH” value [4] was “protects” and the Nrf2 activation [5] was “activated”.
